This assay addresses Mitogen-activated protein kinase kinase kinase 11 (Homo sapiens, UniProt Q16584). Kind of assay: Radiometric Filter Plate MLK3 Assay. The protocol:
200 ng (130 nM) MLK3 (Dundee, DU8313) was incubated with 1 μM inactive MKK7b (Dundee, DU703) in the presence of 2 μM cold ATP (Km) and 0.5 μCi/assay 33P ATP and appropriate concentrations of compounds. After a twenty minute incubation, the reactions were washed through filter plates and read on a scintillation counter.

Chain of Mitogen-activated protein kinase kinase kinase 11 (Q16584 whole entry): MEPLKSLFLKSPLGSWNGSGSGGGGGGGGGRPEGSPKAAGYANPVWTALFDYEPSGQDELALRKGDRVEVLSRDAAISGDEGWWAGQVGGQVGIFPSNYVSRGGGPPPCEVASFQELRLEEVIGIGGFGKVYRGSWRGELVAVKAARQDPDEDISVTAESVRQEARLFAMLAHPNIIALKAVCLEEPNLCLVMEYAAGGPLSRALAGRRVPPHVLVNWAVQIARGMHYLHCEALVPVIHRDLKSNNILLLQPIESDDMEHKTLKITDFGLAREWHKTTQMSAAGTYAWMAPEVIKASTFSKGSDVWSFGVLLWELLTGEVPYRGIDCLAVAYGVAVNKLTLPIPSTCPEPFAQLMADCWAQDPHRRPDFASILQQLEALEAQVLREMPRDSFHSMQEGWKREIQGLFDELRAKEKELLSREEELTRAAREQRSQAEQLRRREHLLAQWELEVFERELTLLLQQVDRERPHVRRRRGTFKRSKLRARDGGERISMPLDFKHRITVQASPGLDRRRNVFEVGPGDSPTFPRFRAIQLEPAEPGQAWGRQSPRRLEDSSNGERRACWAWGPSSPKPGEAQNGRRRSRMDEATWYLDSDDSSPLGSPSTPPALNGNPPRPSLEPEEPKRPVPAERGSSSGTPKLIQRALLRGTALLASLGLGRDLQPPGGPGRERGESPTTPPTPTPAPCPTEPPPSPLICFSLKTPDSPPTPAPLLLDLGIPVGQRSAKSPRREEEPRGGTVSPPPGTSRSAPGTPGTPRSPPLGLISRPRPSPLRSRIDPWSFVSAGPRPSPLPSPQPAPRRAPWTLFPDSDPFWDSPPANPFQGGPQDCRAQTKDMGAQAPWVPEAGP

In the case of `CC(=O)N1CCN(C(=O)c2ccc(-c3cnc4[nH]cc(-c5ccc(C(N)=O)cc5)c4c3)cc2)CC1` [US10485800, Example 150], the IC50 (in general, the concentration that inhibits the measured activity by half) is “in the range around 550 nM”.

Values taken from BindingDB's records for patent US10485800 (The University of Rochester, 2019).
